Measured values taken from patent US8846393B2, “Methods of improving stem cell homing and engraftment” (Gamida-Cell Ltd., priority 2005, dated 2014).

Legend:
VLA-4 = assay: Shear flow experiments, VLA4-mediated binding to immobilized VCAM-1; type: cell-based, human; details: CD34+ cells cultured with cytokines and nicotinamide
Method: FIG. 3 is a graph showing the effect of nicotinamide on VLA4-mediated binding of cells to immobilized adhesion molecules under shear flow. CD34+ cells cultured as described in FIGS. 1 and 2 hereinabove were assayed for capture and arrest under shear stress, on immobilized VCAM-1 adsorbed as 10 μl dots on polystyrene. Cell settling events, and arrest were analyzed under perfusion (shear stress) by video photography. Assayed cell populations were cells before culture (non-cultured, open circles), cells cultured with cytokines, as described in FIG. 2 (cultured, closed circles), and cells cultured with cytokines and nicotinamide (cultured+NA, closed triangles). […]
Soluble purified seven-domain human VCAM-1, sVCAM-1 was mixed in coating medium (PBS buffered with 20 mM sodium bicarbonate pH, 8.5) with a fixed amount of carrier (2 μg/ml HSA) and adsorbed as 10-μl spots on polystyrene plates (Becton Dickinson and Co, San Jose, Calif., USA) for 2 hours at 37° C., alone or with the indicated amounts of intact or heat-inactivated chemokines. […] VCAM-1 site densities were assessed using ^125I-labeled anti-VCAM-1 mAb, 4B9. […] The entire duration of cell perfusions were recorded on a videotape with a long integration LIS-700 CCD video camera (Applitech Rigicam, Israel) and a Time Lapse SVHS-Video recorder (AG-6730; Panasonic, Japan). […]

NOD/SCID mice = assay: Transplantation of human CD34+ cells into NOD/SCID mice, engraftment and quantification of SCID repopulating cells; type: in vivo; details: for engraftment (mice positively engrafted): 3-weeks with cytokines+NA, 4-weeks post transplantation
Excerpt: FIGS. 4a-4f is a graphic representation of the effect of nicotinamide on homing and engraftment of human hematopoietic cells transplanted into NOD/SCID mice. FIGS. 4a and 4b show the percentage of human (CD45+) cells in the cell populations before transplantation: non-cultured CD34^+ cells (non-cultured, gray ovals), the entire progeny of cultures following 3-week exposure to cytokines alone (cytokines alone, closed ovals), or cytokines and nicotinamide (cytokines+NA, arrows). The percent of engraftment 4 weeks post transplantation was determined by flow cytometry of human CD45 cells in the NOD/SCID marrow (y-axis). The numbers of SCID repopulating cells (SRC) were calculated by plotting the engraftment frequencies at each dose. The resultant curves indicates the estimated frequency of SRCs within non-cultured CD34+ cells (FIG. 4c), culture with cytokines (FIG. 4d) or cytokines and nicotinamide (FIG. 4e). The number shown in each box indicates the calculated frequency of SRCs using the maximum likelihood estimator. […] Mouse bone marrow cells were dually stained with FITC-conjugated anti-CD45 (human) and antibodies to human differentiation markers as indicated. Percentages of dual positive cells are shown within each quadrant. Note the greater than 7 fold enhancement of engraftment in the nicotinamide-treated mice (FIG. 4e), as compared with mice treated with cytokines alone (FIG. 4d); FIGS. 5a-5c are a graphic representation of the effect of nicotinamide (NA) on the engraftment potential of cells cultured under differentiation-promoting conditions. Cultures were initiated with purified cord blood-derived CD34+ cells in medium supplemented with SCF, TPO, IL-6 and FLT3, 50 ng/ml each, and IL-3, 20 ng/ml, with (cytokines+NA, arrows) or without (cytokines, ovals) 10 mM nicotinamide. After 3 weeks, cells were harvested, and transplanted into SCID mice as indicated. Mice were transplanted with 1.25−5×10^4 CD34+ cells or with their progeny following expansion. Mice were sacrificed 4 weeks later and bone marrow cells were analyzed by FACS for the presence of CD34+ (human progenitor) and CD45+ (human) cells. Mice were scored as engrafted when the number of human (CD45+) cells constituted […] of the marrow population. […] FIGS. 4b and 4c show the percentage of total human (CD45+) (FIG. 4b) cells and human progenitor (CD45+CD34+) (FIG. 4c) cells in the bone marrow of mice transplanted with cells derived from culture initiated with 1.25×10^4 CD34+ cells. Note the enhanced engraftment of both total human, and human progenitor cells resulting from nicotinamide treatment. Purified CD34+ cells were cultured in culture bags (American Fluoroseal Co., Gaithersburg, Md.) at 1×10^4 cells/ml in MEMα medium, 10% fetal calf serum (FCS) and cytokines: Thrombopoietin (TPO), interleukin-6 (IL-6), FLT-3 ligand and stem cell factor (SCF), each at a final concentration of 50 ng/ml (Perpo Tech, Inc., Rocky Hill, N.J.), with or without 5 mM nicotinamide (NA) (Sigma Aldrich, Milwaukee, Wis.) and incubated at 37° C. in a humidified atmosphere of 5% CO2 in air. […] Until week 3, the cultures were topped weekly with the same volume of fresh medium and then weekly demi-depopulated. Cell counting, colony forming unit (CFUc) assay and immunophenotype analysis were performed as described hereinbelow. NOD/SCID mice were bred and maintained in sterile intra-ventilated cages (Techniplast, Bugugiatte, Italy). Eight-week-old mice were sub-lethally irradiated as described above. […]

NC(=O)c1cccnc1 [nicotinamide] was tested, and the “percentage of initially settled cells resistant to removal by shear stress” value (VLA-4) was “significantly enhanced”, the “mice with human (CD45+) cells in bone marrow” value (NOD/SCID mice; IL-3 supplemented cultures (SCF, TPO, IL-6, FLT3, IL-3) with 10 mM nicotinamide, 1.25×10^4 cells, 4 weeks) was 5 out of 5 and the “engraftment of human progenitors (CD45+CD34+)” value (NOD/SCID mice; IL-3 supplemented cultures with 10 mM nicotinamide, 4-weeks after transplantation) was “observed only in mice transplanted with cells cultured with nicotinamide”. For the same molecule, the “number of SRCs relative to non-cultured cells” value (NOD/SCID mice; culture with nicotinamide and cytokines) was 14 fold, the “engraftment (mice positively engrafted)” value (NOD/SCID mice; progeny of 3×10^3 CB CD34+ cells) was 50% and the “engraftment (mice positively engrafted)” value (NOD/SCID mice; progeny of 6×10^3 CD34+ cells) was 100%.
